The values below come from US5364876A, “Omega-[2-(alkyl)phenyl]-2-aminoalkanoic acids as antagonists of excitatory amino acid receptors” (Guilford Pharmaceuticals Inc., priority 1992, dated 1994).

One experiment relates to kainate receptors. The settings on record: U.S. Pat. No. 4,657,899, Table I; cited from earlier work.
In another experiment the test system is NMDA receptors. The settings on record: U.S. Pat. No. 4,657,899; cited from earlier work.
Experiment [1] deals with KA receptors (kainic acid-induced currents). Kind of experiment: Inhibition of KA-induced currents in rat brain mRNA-injected Xenopus oocytes. It counts as cell-based. The settings on record: Xenopus oocytes injected with rat brain mRNA; IC50 converted to Ki by Cheng-Prusoff equation. As for the experimental part:
(§1) Defolliculated oocytes obtained from Xenopus laevis females were injected with 30-75 ng of poly (A+) mRNA obtained from 21-day old male Sprague-Dawley rats. Oocytes were placed individually in […] of antibiotic-supplemented modified Barthes solution (MBS, containing in mM: NaCl, 88; KCl, 1.0; NaHCO3, 2.4; HEPES, 10;MgSO4, 0.82; Ca(NO3)2, 0.33) in 96-well sterile plates and cultured for 48-120 hours prior to experimentation. Oocytes were inspected every 24 hours at which time the bathing solution is replaced with fresh MBS.
(§2) For electrophysiological studies, oocytes were positioned in a small recording chamber ([…]) and superfused with antibiotic free MBS supplemented with CaCl2 (final concentration=1.4 mM). Oocytes are impaled with a single glass microelectrode, voltage clamped at -60 to -70 mV, and perfused by gravity feed at a rate of […] at room temperature. […] Antagonists are coperfused with agonists. MBS used in NMDA assays were prepared from "glycine-free", deionized water
(§3) Potencies to inhibit kainic acid-, AMPA- and […] currents are determined from concentration-response curves. IC50 values are converted to Ki values for comparison purposes using the Cheng-Prusoff equation.

For experiment [2], the target named is T1, strychnine insensitive glycine site (Rattus norvegicus, UniProt P35439).
T1 construct: from tissue
Kind of experiment: Strychnine insensitive glycine binding. The settings on record: read-out: Receptor Potency (Ki), Glycine.

The target in the next experiment is AMPA receptors. Kind of experiment: [3H]AMPA displacement binding. The settings on record: for Ki: [3H]AMPA displacement, read-out: Receptor Potency (Ki), AMPA.
For another experiment, the target named is GLU (NMDA receptors). In words: GLU receptor ligand binding (NMDA receptors). The settings on record: read-out: Receptor Potency (Ki), GLU.
In another experiment the target is KA receptor. In words: KA receptor ligand binding. Further details: species or system rat.
Experiment [3] concerns the target AMPA receptors (AMPA-induced currents). Kind of experiment: Inhibition of AMPA-induced currents in rat brain mRNA-injected Xenopus oocytes. It counts as cell-based. The settings on record: Xenopus oocytes injected with rat brain mRNA; IC50 converted to Ki by Cheng-Prusoff equation. On the procedure: as §1, §2, §3
In experiment [4] the target is CNQX labeled non-NMDA receptors. Kind of experiment: CNQX-labeled non-NMDA receptor binding. The settings on record: read-out: Receptor Potency (Ki), CNQX.

Several values for one entry are separate records, joined by “and”; a condition that tells them apart may be missing. Equal entries are not always repeated.

As for `NC(Cc1ccccc1CCP(=O)(O)O)C(=O)O` (stereo not drawn) [2-amino-3-[2-(2-phosphonoethyl)phenyl]propanoic acid], the “binding affinity for kainate receptors” value in the experiment on kainate receptors is recorded as “very low binding affinity”. Further, the NMDA antagonist activity entry with NMDA receptors was “antagonists of NMDA”.
Turning to `NC(Cc1ccccc1CCCP(=O)(O)O)C(=O)O` (stereo not drawn) [2-amino-3-[2-(3-phosphonopropyl)phenyl]propanoic acid], the “binding affinity for kainate receptors” value in the experiment with kainate receptors is recorded as “very low binding affinity”. Moreover, in the experiment on NMDA receptors, the NMDA antagonist activity entry was “antagonists of NMDA”.
Consider `NC(Cc1ccccc1CP(=O)(O)O)C(=O)O` (stereo not drawn) [2-amino-3-[2-phosphonomethylphenyl]propanoic acid], for which the “binding affinity for kainate receptors” value with kainate receptors is given as “very low binding affinity”. Besides, the NMDA antagonist activity result in the experiment on NMDA receptors is recorded as “antagonists of NMDA”.
Turning to `NC(CCCc1ccccc1CP(=O)(O)O)C(=O)O` (stereo not drawn) [2-amino-5-[2-phosphonomethylphenyl]pentanoic acid], in the experiment with kainate receptors, the “binding affinity for kainate receptors” value is listed as “very low binding affinity”. Moreover, the NMDA antagonist activity result with NMDA receptors is on record as “antagonists of NMDA”.
The Ki is a measure of affinity in units of concentration, obtained from inhibition or displacement. On to `NC(Cc1cc(F)ccc1CCC(=O)O)C(=O)O` (stereo not drawn) [Example 5a], for which, in experiment [1], the “Ki, inhibition of KA-induced currents” value was above 50 µM. Moreover, the Ki in experiment [2] was 41 µM; at AMPA receptors it was 168 µM; at GLU (NMDA receptors), above 300 µM. Also, the “Receptor Potency (Ki), KA” value at KA receptor amounted to 475 µM.
With `NC(Cc1cc(Cl)ccc1CCC(=O)O)C(=O)O` (stereo not drawn) [Example 5b], the “Ki, inhibition of KA-induced currents” value in experiment [1] is 32 µM. The Ki in [2] was 9 µM; on AMPA receptors it was 51 µM; at GLU (NMDA receptors), above 300 µM; in [3], 96 µM. Moreover, the “selectivity for AMPA versus NMDA receptors” value with AMPA receptors (Ki GLU >300 μM versus Ki AMPA 51 μM) is listed as “at least six-fold selective”. Moreover, on KA receptor, the “Receptor Potency (Ki), KA” value was determined as 506 µM.
In the case of `Cc1cc(C)c(CCC(=O)O)c(C[C@H](N)C(=O)O)c1` [Example 5c, 3,5-Dimethyl-2-(2'-carboxyethyl)phenylalanine], the “Ki, inhibition of KA-induced currents” value in experiment [1] was 84 µM. For the same molecule, the Ki is 211 µM in experiment [2] and above 1000 µM on GLU (NMDA receptors).
For `Cc1ccc(CCCC(=O)O)c(C[C@H](N)C(=O)O)c1` [Example 26, 5-Methyl-2-(3'-carboxypropyl) phenylalanine], the “Ki, inhibition of KA-induced currents” value in experiment [1] was 13 µM and 13.3 µM. The Ki in experiment [2] was 2400 µM; on GLU (NMDA receptors), above 1000 µM; in experiment [4], 8.4 µM.
